Non-standard residues stand in square brackets, D forms with d. No end group written: not given here. 5‑aminobutyric acid = not defined here
System: PBMC's
Assay: Cytokine release assay (IL-10 release from PBMCs, ELISA or multiplex bead array)
Format: cell-based
Settings: house dust mite peptides of Example 1; PBMCs of dust mite allergic individuals; 5 days stimulation; FIGS. 1 and 2
Description: FIGS. 1 and 2 show mean IL-10 release (y axis, pg/ml) in response to the house dust mite peptides shown on the x axis, for a population of dust mite allergic individuals.
FIGS. 3 and 4 show mean IL-10 release (y axis, pg/ml) in response to the ragweed peptides shown on the x axis, for a population of ragweed allergic individuals.
Cytokine secretion profiles from PBMC's are analysed in response to the peptide stimulation using the peptides from Examples 1 and 2. Supernatants from the cytokine release assay were tested for the presence of IL-10, using either an ELISA assay or a multiplex bead array assay. A typical cytokine release assay requires 40×10^6 PBMC's per subject. In more detail, 250 μl of a 200 μg/ml solution of the appropriate antigen or peptide concentration is distributed into the appropriate wells of 48 well plates. Plates are then incubated in a humidified 5% CO2 incubator at 37° C. for a maximum of 4 hours. 250 μl of a 5×10^6 cell/ml PBMC suspension is then added to each well and the plates returned to the incubator for 5 days. Following stimulation, samples of culture supernatant are harvested for testing by ELISA or multiplex bead assay according to standard protocols.

Q: Which “IL-10 production compared with other peptides” value does the source give for “ELVDSASQHG (Description of Artificial Sequence: Synthetic HDM03W peptide)” here?
A: Its value is “higher IL-10 production than other peptides”.

Q: What about the “IL-10 release compared with whole allergen” value of the same sequence?
A: The value was “higher IL-10 release than whole allergen”.

Q: Which “IL-10 production compared with other peptides” value does the source give for “RNQSLDLAEQELVDSASQH (Description of Artificial Sequence: Synthetic HDM03D peptide)” here?
A: The value was “higher IL-10 production than other peptides”.

Q: How did the “IL-10 production compared with other peptides” value turn out when EQELVDSASQHG [HDM03V] was run?
A: Its value is “higher IL-10 production than other peptides”.

Q: Which results are given for DEFKNRFLMSAEAFE [HDM202]?
A: IL-10 production compared with other peptides: higher IL-10 production than other peptides; IL-10 release compared with whole allergen: higher IL-10 release than whole allergen

Q: How did the “IL-10 production compared with other peptides” value turn out when “RNQSLDLAEQELVD ? ASQH (RNQSLDLAEQELVD[5‑aminobutyric acid]ASQH; not fully specified; reading uncertain) [HDM03E, character = 2-aminobutryic acid]” was run?
A: The value was “higher IL-10 production than other peptides”.

Q: What about the “IL-10 release compared with whole allergen” value of the same sequence?
A: Its value is “higher IL-10 release than whole allergen”.

Same assay, conditions: ragweed peptides of Example 2; PBMCs of ragweed allergic individuals; 5 days stimulation; FIGS. 3 and 4

Q: What does the source list for KGEAAIKLTSSAGVLSKK [RGW07D]?
A: IL-10 production compared with other peptides: higher IL-10 production than other peptides; IL-10 release compared with whole allergen: higher IL-10 release than whole allergen

Q: Which “IL-10 production compared with other peptides” value does the source give for KGEAAIKLTSSAGVLSK [RGW07C] here?
A: The value was “higher IL-10 production than other peptides”.

Q: GESALSLTSSAGVLS [RGW07B] was tested. Which “IL-10 production compared with other peptides” value did it give?
A: The value was “higher IL-10 production than other peptides”.

Q: Which “IL-10 production compared with other peptides” value does the source give for GEAAIKLTSSAGVLS [RGW07] here?
A: The value was “higher IL-10 production than other peptides”.

From patent US8821887B2, “T-cell antigen peptide from allergen for stimulation of IL-10 production” (Circassia Limited, priority 2008, dated 2014)
